Experimental data from US8058270B2, “Dihydropteridinones for the treatment of cancer diseases” (Boehringer Ingelheim International GmbH, priority 2004, dated 2011).

Columns and labels:
Type in all cases: cell-based
NCI-N87 = experiment: Alamar Blue cytotoxicity assay; conditions: Homo sapiens; NCI-N87 (Stomach), 72 h
Description: (§1) Alamar Blue™ Cytotoxicity Assays
(§2) The Alamar Blue™ assay is designed to measure quantitatively the proliferation of cells by incorporating a fluorometric/colorimetric growth indicator based on the detection of metabolic activity.
(§3) Cell culture: The various human tumor cell lines can be purchased from American Type Culture Collection (ATCC) or the German Collection of Microorganisms and Cell Cultures (DSMZ) and cultivated in 75 to 175 cm^2 tissue culture flasks in the medium indicated by the supplier. The cells are maintained at 37° C. and 5% CO2 in a humidified atmosphere, with an appropriate split ratio. Logarithmically growing cells are used for the assays.
(§4) Assay conditions: On day one of the experiment 1000-4000 cells (in 100 μl medium) are seeded into each well of a sterile 96-well plate. The number of cells used is dependent on the growth rate and size of the cells. Eight wells on each plate are left free to accommodate for controls (4 wells for medium plus reduced AlamarBlue™, and 4 wells for medium plus oxidized AlamarBlue™). The plates are kept in the incubator overnight. On day two of the experiment serial dilutions of the inhibitor are prepared in medium containing 0.1% DMSO. Typical concentrations used are 10, 3, 1, 0.3, 0.1, 0.03, 0.01, 0.003 and 0.001 μM. 100 μl of the dilution (2× concentrate) is added to each well to yield a final volume of 200 μl per well. As controls plain medium and medium containing 0.1% DMSO are added to the designated wells. All data points are done in quadruplicates. The cells are then incubated for 72 h. After this incubation period 20 μl of AlamarBlue™ is added to each well. As a control, 20 μl of reduced AlamarBlue™ (AlamarBlue™ autoclaved for 30 min) is added to 4 wells without cells, and 20 μl of AlamarBlue™ is added to the remaining 4 wells without cells. After 4-5 h of incubation, the plates are measured in a fluorescence spectrophotometer (excitation 530 nm, emission 590 nm, slits 15, integrate time 0.1).
(§5) Data analysis: For calculation the mean value from the quadruplicates is taken and the background is subtracted. The 0.1% DMSO value (the mean obtained from 8 wells with cells in medium with 0.1% DMSO but no compound) is taken as 100% control. The data is fitted by iterative calculations using a sigmoidal curve analysis program (Graph Pad Prism version 3.03) with variable Hill slope.

Mia CaPa-2 = experiment: Alamar Blue cytotoxicity assay; conditions: Homo sapiens; Mia CaPa-2 (Pancreas), 72 h
Description: as §1, §2, §3, §4, §5

Colo 205 = experiment: Alamar Blue cytotoxicity assay; conditions: Homo sapiens; Colo 205 (Colon), 72 h
Description: as §1, §2, §3, §4, §5

HCT116 = experiment: Alamar Blue cytotoxicity assay; conditions: Homo sapiens, HCT-116; HCT116 (Colon), 72 h
Description: as §1, §2, §3, §4, §5

Saos-2 [1] = experiment: Alamar Blue cytotoxicity assay; conditions: Homo sapiens; Saos-2 (Bone), 72 h
Description: as §1, §2, §3, §4, §5

NCI-H520 [2] = experiment: Alamar Blue cytotoxicity assay; conditions: Homo sapiens; NCI-H520 (Lung), 72 h
Description: as §1, §2, §3, §4, §5

H4 = experiment: FACS analysis on PI stained tumor cells, G2/M arrest; conditions: Homo sapiens; H4 (Brain), 24 hrs; read-out: FACS Analysis G2M-Arrest EC50
Description: (§6) FACS Analysis on PI Stained Tumor Cells
(§7) Propidium iodine (PI) binds stoichiometrically to double stranded DNA and thus is a suitable agent to measure the DNA content of cells in order to determine the percentage of cells residing in various cell cycle stages (G0/1-, S- and G2/M-phases), whereas cells in G0 or G1 phase do have a diploid DNA content (2N) cells in G2 and M-phase (mitosis) do have a doubled (4N) DNA content.
as §3
(§8) Assay conditions: On day one of the experiment 1×10^6 tumor cells are plated in 15 ml medium onto each 75 cm^2 tissue culture flask and the cultures are returned to the incubator. On the next day serial twofold dilutions (100× concentrated) of the inhibitor are prepared in tissue culture medium containing 10% DMSO. 150 μl of the 100× concentrated dilution is added to the 15 ml medium in the flask. As control DMSO is given into a separate flask to yield a final concentration of 0.1%. Typical final concentrations used are 1.6, […], 0.4, 0.2, 0.1, 0.05, 0.025, 0.0125, 0.00625 μM in medium containing 0.1% DMSO. After 24 hrs of incubation cells are harvested by 2× wash with PBS and subsequent addition of trypsin/EDTA. Trypsinized cells are washed off the plastic with 1% BSA in PBS. Non-adherent cells in the medium and cells in the PBS wash fluids are pelleted together with the trypsinized cells by centrifuging them for 5 min at 1000 rpm at 4° C. The supernatants are discarded and the pellet is washed twice with PBS. After aspiration of the supernatants pellets are resuspended in the residual PBS (˜100 μl). For cell fixation, 15 ml test tubes (Falcon) with 5 ml of 80% cold ethanol are prepared and the cell suspension is added slowly and kept for at least 2 h or overnight at minus 20° C. Fixed cells are pelleted, washed once with PBS and the cell pellet is then resuspended in 2 ml of 0.25% Triton X-100 in PBS. After 5 min incubation on ice, 5 ml of PBS is added to each sample and the sample is again centrifuged at 1000 rpm for 5 min at 4° C. The supernatant is discarded and the pellet is resuspended in 0.5 ml propidium iodine (PI) staining solution (0.1% RNase and 10 μg/ml propidium iodine in PBS). The cells are incubated for 20 min in the dark and subsequently transferred to 5 ml polystyrene round-bottom tubes.
(§9) Data analysis: Analysis of the DNA content of the cells can be performed using a FACS analyzer equipped with an argon laser (500 mW, emission 488 nm) and the use of the DNA Cell Quest analysis software (Beckton Dickinson). The logarithmic PI fluorescence is determined in a band-pass filter (Beckton Dickinson 585/43). Quantification of the cell populations residing in the individual cell cycle phases (e.g. G0/G1-, S- and G2/M-phases) is done with the ModFit LT software package from Becton Dickinson. An EC50 value for cells arrested at the G2/M-phase of the cell cycle is calculated by using a sigmoidal curve analysis program (Graph Pad Prism version 3.03).

MDA-MB-435S = experiment: as above; conditions: Homo sapiens; MDA-MB-435S (Breast), 24 hrs; read-out: FACS Analysis G2M-Arrest EC50
Description: as §6, §7, §3, §8, §9

PC-3 = experiment: as above; conditions: Homo sapiens; PC-3 (Prostate), 24 hrs; read-out: FACS Analysis G2M-Arrest EC50
Description: as §6, §7, §3, §8, §9

NCI-H460 = experiment: as above; conditions: Homo sapiens; NCI-H460 (Lung), 24 hrs; read-out: FACS Analysis G2M-Arrest EC50
Description: as §6, §7, §3, §8, §9

GRANTA-519 = experiment: as above; conditions: Homo sapiens; GRANTA-519 (Lymphoma), 24 hrs; read-out: FACS Analysis G2M-Arrest EC50
Description: as §6, §7, §3, §8, §9

HeLa S3 = experiment: as above; conditions: Homo sapiens; HeLa S3 (Cervix), 24 hrs; read-out: FACS Analysis G2M-Arrest EC50
Description: as §6, §7, §3, §8, §9

FaDu = experiment: as above; conditions: Homo sapiens; FaDu (Head and Neck), 24 hrs; read-out: FACS Analysis G2M-Arrest EC50
Description: as §6, §7, §3, §8, §9

Raji = experiment: as above; conditions: Homo sapiens; Raji (Lymphoma), 24 hrs; read-out: FACS Analysis G2M-Arrest EC50
Description: as §6, §7, §3, §8, §9

A549 = experiment: as above; conditions: Homo sapiens; A549 (Lung), 24 hrs; read-out: FACS Analysis G2M-Arrest EC50
Description: as §6, §7, §3, §8, §9

SKOV-3 = experiment: as above; conditions: Homo sapiens, SK-OV-3; SKOV-3 (Ovary), 24 hrs; read-out: FACS Analysis G2M-Arrest EC50
Description: as §6, §7, §3, §8, §9

HepG2 = experiment: as above; conditions: Homo sapiens; HepG2 (Liver), 24 hrs; read-out: FACS Analysis G2M-Arrest EC50
Description: as §6, §7, §3, §8, §9

A431 = experiment: as above; conditions: Homo sapiens, A-431; A431 (Vulva), 24 hrs; read-out: FACS Analysis G2M-Arrest EC50
Description: as §6, §7, §3, §8, §9

BxPC-3 = experiment: as above; conditions: Homo sapiens; BxPC-3 (Pancreas), 24 hrs; read-out: FACS Analysis G2M-Arrest EC50
Description: as §6, §7, §3, §8, §9

Saos-2 [3] = experiment: as above; conditions: Homo sapiens; Saos-2 (Bone), 24 hrs; read-out: FACS Analysis G2M-Arrest EC50
Description: as §6, §7, §3, §8, §9

NCI-H520 [4] = experiment: as above; conditions: Homo sapiens; NCI-H520 (Lung), 24 hrs; read-out: FACS Analysis G2M-Arrest EC50
Description: as §6, §7, §3, §8, §9

`CC[C@@H]1C(=O)N(C)c2cnc(Nc3ccc(C(=O)NC4CCN(C)CC4)cc3OC)nc2N1C1CCCC1` [4-[[(7R)-8-cyclopentyl-7-ethyl-5,6,7,8-tetrahydro-5-methyl-6-oxo-2-pteridinyl]amino]-3-methoxy-N-(1-methyl-4-piperidinyl)-benzamide] was tested, and the EC50 (NCI-N87) was 14 nM, the EC50 (Mia CaPa-2) was 7 nM and the EC50 (Colo 205) was 9 nM. For the same compound, the EC50 (HCT116) was 9 nM, the EC50 (Saos-2 [1]) was 8 nM and the EC50 (NCI-H520 [2]) was 10 nM. For the same compound, the EC50 (H4) was 39 nM, the EC50 (MDA-MB-435S) was 38 nM and the EC50 (PC-3) was 12 nM. It also gave an EC50 (NCI-H460) of 32 nM, an EC50 (GRANTA-519) of 12 nM and an EC50 (HeLa S3) of 16 nM. It also gave an EC50 (FaDu) of 7 nM, an EC50 (Raji) of 20 nM and an EC50 (A549) of 14 nM. It also gave an EC50 (SKOV-3) of 11 nM, an EC50 (HepG2) of 39 nM and an EC50 (A431) of 6 nM. For the same compound, the EC50 (BxPC-3) was 22 nM, the EC50 (Saos-2 [3]) was 11 nM and the EC50 (NCI-H520 [4]) was 18 nM.
